Organism: Oryctolagus cuniculus
Assay: Inhibitory concentration of compound against antigen binding site in immunized rabbits
Type: functional, organism-based

For `CC(=O)NC(Cc1cn(-c2ccc(Br)cc2)cn1)C(=O)O` (stereo unspecified), the IC50 was roughly 1000 nM.
